Values after ≈ are worked out from the molar mass of the structure shown.

What is called MIC is the least concentration at which growth counts as inhibited.

The test relates to H37Rv strain of Mycobacterium tuberculosis. The test can be described thus: MIC against H37Rv strain. Type of test: cell-based. As to conditions: Mycobacterium tuberculosis, H37RV; read-out: MIC. On the procedure: The purpose of this study was to test activity of selected tetracycline compounds against the H37Rv strain of Mycobacterium tuberculosis. Minimum inhibitory concentrations (MIC) of different tetracycline compounds against H37Rv strain were determined and are shown in Table 8.
Take `CN1CCC(NCc2cc(N(C)C)c3c(c2O)C(=O)C2=C(O)[C@]4(O)C(=O)C(C(N)=O)=C(O)[C@@H](N(C)C)[C@@H]4C[C@@H]2C3)CC1` [Compound 47]: the MIC is greater than 32 µg/mL.

As to `CN(C)c1cc(CNC(=O)C(Cc2ccccc2)N(C)C)c(O)c2c1C[C@H]1C[C@H]3[C@@H](N(C)C)C(O)=C(C(N)=O)C(=O)[C@@]3(O)C(O)=C1C2=O` (stereo partly drawn) [Compound 48], the MIC was greater than 32 µg/mL.

On to `CN(C)c1cc(CNCC2CCNCC2)c(O)c2c1C[C@H]1C[C@H]3[C@@H](N(C)C)C(O)=C(C(N)=O)C(=O)[C@@]3(O)C(O)=C1C2=O` [Compound 49], for which the MIC was greater than 32 µg/mL.

With `CN(C)c1cc(CNCC2CCSCC2)c(O)c2c1C[C@H]1C[C@H]3C(N(C)C)C(O)=C(C(N)=O)C(=O)[C@@]3(O)C(O)=C1C2=O` (stereo partly drawn) [Compound 50], the MIC is greater than 32 µg/mL.

For the compound `CC(N)CNCc1cc(N(C)C)c2c(c1O)C(=O)C1=C(O)[C@]3(O)C(=O)C(C(N)=O)=C(O)C(N(C)C)[C@@H]3C[C@@H]1C2` (stereo partly drawn) [Compound 51], the MIC is greater than 32 µg/mL.

For the compound `CN(C)c1cc(CNC(=O)c2ccno2)c(O)c2c1C[C@H]1C[C@H]3C(N(C)C)C(O)=C(C(N)=O)C(=O)[C@@]3(O)C(O)=C1C2=O` (stereo partly drawn) [Compound 52], the MIC worked out at 16 µg/mL (≈ 27.5 µM).

In the case of `CCC(C)CNCc1cc(N(C)C)c2c(c1O)C(=O)C1=C(O)[C@]3(O)C(=O)C(C(N)=O)=C(O)[C@@H](N(C)C)[C@@H]3C[C@@H]1C2` (stereo partly drawn) [Compound 53], the minimal inhibitory concentration (MIC) came out at 16 µg/mL (≈ 28.7 µM).

In the case of `CN(C)c1cc(CNCc2cc[n+]([O-])cc2)c(O)c2c1C[C@H]1C[C@H]3[C@H](N(C)C)C(O)=C(C(N)=O)C(=O)[C@@]3(O)C(O)=C1C2=O` [Compound 54], the MIC turned out to be 32 µg/mL (≈ 53.9 µM).

As for `CN(C)c1cc(CN(Cc2ccn[nH]2)Cc2ccn[nH]2)c(O)c2c1C[C@H]1C[C@H]3[C@H](N(C)C)C(O)=C(C(N)=O)C(=O)[C@@]3(O)C(O)=C1C2=O` [Compound 55], the MIC was greater than 32 µg/mL.

For `CN(C)c1cc(CN2CCCCC2)c(O)c2c1C[C@H]1C[C@H]3[C@H](N(C)C)C(O)=C(C(N)=O)C(=O)[C@@]3(O)C(O)=C1C2=O` [Compound 56], the MIC amounted to 16 µg/mL (≈ 28.8 µM).

On to `CN(C)c1cc(CNCC2CCCCC2)c(O)c2c1C[C@H]1C[C@H]3[C@H](N(C)C)C(O)=C(C(N)=O)C(=O)[C@@]3(O)C(O)=C1C2=O` [Compound 57], for which the MIC was 32 µg/mL (≈ 54.9 µM).

For `CN(C)c1cc(CNC(=O)C2CCCN2)c(O)c2c1C[C@H]1C[C@H]3C(N(C)C)C(O)=C(C(N)=O)C(=O)[C@@]3(O)C(O)=C1C2=O` (stereo partly drawn) [Compound 58], the minimum inhibitory concentration (MIC) was found to be 16 µg/mL (≈ 27.4 µM).

Regarding `CN(C)c1cc(CNC(=O)C2(N)CC2)c(O)c2c1C[C@H]1C[C@H]3[C@H](N(C)C)C(O)=C(C(N)=O)C(=O)[C@@]3(O)C(O)=C1C2=O` [Compound 59], the MIC was determined as 16 µg/mL (≈ 28.1 µM).

On to `CN(C)CC(=O)NCc1cc(N(C)C)c2c(c1O)C(=O)C1=C(O)[C@]3(O)C(=O)C(C(N)=O)=C(O)C(N(C)C)[C@@H]3C[C@@H]1C2` (stereo partly drawn) [Compound 60], for which the MIC is 16 µg/mL (≈ 28 µM).

Turning to `CN(C)c1cc(CNC(N)=S)c(O)c2c1C[C@H]1C[C@H]3[C@H](N(C)C)C(O)=C(C(N)=O)C(=O)[C@@]3(O)C(O)=C1C2=O` [Compound 61], the MIC is greater than 32 µg/mL.

`Cc1csc(NCc2cc(N(C)C)c3c(c2O)C(=O)C2=C(O)[C@]4(O)C(=O)C(C(N)=O)=C(O)C(N(C)C)[C@@H]4C[C@@H]2C3)n1` (stereo partly drawn) [Compound 62]: the MIC was greater than 32 µg/mL.

For `CCOC(=O)c1csc(NCc2cc(N(C)C)c3c(c2O)C(=O)C2=C(O)[C@]4(O)C(=O)C(C(N)=O)=C(O)C(N(C)C)[C@@H]4C[C@@H]2C3)n1` (stereo partly drawn) [Compound 63], the MIC is greater than 32 µg/mL.

As for `CN(C)C1C(O)=C(C(N)=O)C(=O)[C@@]2(O)C(O)=C3C(=O)c4c(O)c(CNCC(C)(C)C)cc(CNCC(C)(C)C)c4C[C@H]3C[C@@H]12` (stereo partly drawn) [Compound 64], the MIC was determined as 32 µg/mL (≈ 52.2 µM).

For the origin of these results see patent US20250332178A1, “METHODS OF TREATING MYCOBACTERIAL INFECTIONS USING TETRACYCLINE COMPOUNDS” (priority 2018, published 2025).
